From patent US20180008593A1 (Purdue Pharma L.P., priority 2005, published 2018)
Values joined by “and” are separate entries in the source; they are usually repeats but may differ in a detail not shown here. Equal entries are not always repeated. Where two headings read alike, the source gives them in different places.

Experiments:
[1] = oral administration; extensive first-pass-metabolism; cited from earlier work
[2] = tested on: bowel function of pain patients on oxycodone with need for laxatives; settings: for Mean Bowel Function Score, Mean (SD) V3: V3 end of titration; for Mean Bowel Function Score, Mean (SD) V5: V5 end of maintenance
Procedure: (§2) a) Mean Pain during the last 7 days prior to each visit, based on the patient's twice-daily assessment of pain intensity using the 0-100 numerical analogue scale (NAS) (0=no pain and 100=worst imaginable pain). Mean Pain was calculated for each study visit as the mean value of the daily mean values of all patient's diary entries from the last 7 days. b) Mean bowel function: patient's assessment, at each study visit, of bowel function during the last 7 days prior to each visit. Mean bowel function was calculated from the mean of the three 0-100 NAS scores: ease of defecation (0=easy/no difficulty, 100=severe difficulty), feeling of incomplete bowel evacuation (0=not at all, 100=very strong), and judgment of constipation (0=not at all, 100=very strong). Secondary efficacy variables of interest included among others: c) Global assessment of efficacy, tolerability and preference. […] Tolerability was measured using the same 0 to 7 numerical analogue scale.
Mean bowel function was calculated for each study visit from the mean of the three NAS values ease/difficulty of defecation, feeling of incomplete bowel evacuation and judgment of constipation.
In addition, two-sided 95% CIs (CI, confidence interval) for the difference in means between the treatment groups were provided. […] These analyses were performed for the ITT and PP populations.
The parameter estimates derived were taken to display a surface plot of the whole dose range investigated. Moreover, a contour plot of the bowel function with a granulation of 10 was performed.

[3] = tested on: patients with severe chronic pain of tumour and non-tumour origin; settings: for Mean Pain, Mean (SD) V3: V3 end of titration; for Mean Pain, Mean (SD) V5: V5 end of maintenance
Procedure: The pre-randomization phase consisted of screening and titration/run-in. Following screening, patients entered either a titration or run-in period. Patients with insufficient pain pre-treatment entered a minimum 2-week titration period and were individually titrated and stabilized at an oxycodone dose of 40 mg, 60 mg or 80 mg per day. Patients on stable oxycodone pre-treatment at screening (between 40-80 mg/day) and with concomitant constipation, entered a 1 week run-in period and were eligible for the maintenance phase without prior titration. For all patients, the dose of oxycodone could be adjusted during titration or run-in and investigators maintained compulsory telephone contact every 2nd day to assess pain control and make dose changes.
as §2

[4] = tested on: experimental human pain model, healthy volunteers; experiment: Intensity estimates of phasic (CO2) pain, Example 4; assay type: in vivo; settings: 70% CO2; 45 mg naloxone with 20 mg oxycodone
Procedure: In the first 20 minutes, 40 phasic CO2-stimuli were applied (20 stimuli at a concentration of 70% and 20 at a concentration of 60%, interstimulus interval 30 s). In response to these stimuli, pain-related potentials and subjective intensity estimates were recorded. Subsequently, tonic pain was induced for 16 minutes and subjects had to rate the intensity of the dull, burning pain.
(§1) CO2-stimuli were mixed in a constantly flowing air stream with controlled temperature (36.5° C.) and humidity (80% relative humidity) presented to the left nostril (stimulus duration 200 ms, interstimulus interval 30 s). […] During intervals between phasic stimuli subjects performed a simple tracking task on a video screen. Using a joystick, they had to keep a small square inside a larger one that randomly moved around.
Within 3-4 seconds after presentation of each CO2 stimulus, subjects compared the perceived intensity to a standard stimulus (70% v/v CO2) presented at the beginning of the first session of each trial day. […] The intensity of the standard stimulus was defined as 100 Estimation Units (EU). The mid-time of a session was regarded as time of measurement. Intensity estimates of the CO2 stimuli (60% and 70%) were evaluated separately for each concentration. On a trial day, the ratings of each post-treatment session were evaluated relative to base line values. […]

[5] = tested on: patients with severe chronic pain; experiment: Laxative intake / mean laxative dose, Example 1; assay type: in vivo, human
Procedure: d) Laxative intake/mean laxative dose, which was calculated from the respective case report forms (CRF) entries. An analysis of the mean laxative dose during the last seven days was performed for patients who took only one laxative during the entire study. Entries from the medication record CRF page were used for all calculations (laxatives were identified by the WHO ATC Code A06A). For laxative intake number of days with laxation during the last 7 days and the percentage of days with laxation during the last 7 days were calculated for each study visit. In addition, the percentage of days with laxation during the whole maintenance phase and during the follow-up phase was calculated.

[6] = tested on: rats physically dependent on oxycodone; experiment: Naloxone-precipitated withdrawal in oxycodone-dependent rats (Gellert-Holtzman global rating, graded and checked signs), Example 5; settings: i.v.
Procedure: Rats were implanted with Alzet 2ML 1 osmotic minipumps infusing either saline vehicle or oxycodone at 1.5 mg/kg/h for 7 days as described above. […] The complete parametric design for oxycodone-pump implanted rats required testing rats with vehicle:vehicle and oxycodone:vehicle.
Signs of physical dependence were evaluated in rats intravenously administered the drugs, and then immediately placed back in their home cages for a 60-min observation period. […] The table is divided into Graded Signs and Checked Signs, and assigned a weighted factor. The rats were evaluated for these signs during the 60 min observation period, the scores were collected, and a combined Global Score was assigned to each rat. Data were analyzed by combining the graded signs of escape attempts and wet-dog shakes into a single score of Grades Signs during each 15-min interval for 60-min. Checked signs were analyzed during each 15-min interval for 60-min.
The rats were assessed in 15-min intervals for both graded and checked signs for a total of 60 min. The graded signs of escape attempts and wet-dog shakes were tallied, whereas, checked signs such as diarrhea, profuse salivation, chromodactorrhea, etc. were noted as being either absent or present during the 15-min period. Both graded and checked signs were assigned a numeric score based on studies by Gellert and Holtzman (1978), and the total value for each animal was added to provide a global rating.
The incidence of checked signs during opioid withdrawal was also analyzed statistically within each time interval at 0-15, 15-30, 30-45 and 45-60 minutes. The data was analyzed within each time interval using contingency table Person's Chi Square analysis (Sigma Stat Statistical Software, SPSS, Inc.) to evaluate the X2 value. X2 values exceeding the critical value for 7 of 14.1 were considered statistically significant intervals for that checked behavioral sign.

[7] = tested on: experimental human pain model, healthy volunteers; experiment: Pain-related evoked potentials (EEG) after CO2 stimulation of the nasal mucosa, Example 4; assay type: in vivo; settings: for Magnitude of reduction of amplitude P1N1 at C4 compared to baseline: 60% CO2
Procedure: This was a single site, single dose, double blind, placebo-controlled, 5-treatment, 5-period, randomized, balanced crossover study in healthy adult male and female subjects. […] Subjects were allocated each of the 5 treatments described in the synopsis according to a random allocation schedule (RAS). There was a 7-day washout period
Analgesic effects were assessed by means of an experimental human pain model based on the chemosomatosensory pain-related cortical potentials (CSSEPs) and pain-ratings after specific phasic nociceptive stimulation of the nasal mucosa with gaseous CO2. In addition, intensity estimates of tonic pain produced by stimulation of the nasal mucosa with dry air at controlled flow and temperature were employed.
Within the present pain model, the following were used as indicators of analgesia: • post-treatment decrease in pain-ratings and/or • post-treatment decrease in amplitudes of pain-related evoked potentials and/or • post-treatment increase in latencies of pain-related evoked potentials, relative to the pretreatment values.
1. Base-to-peak amplitudes P1, N1 and P2, peak-to-peak amplitudes P1 N1 and N1P2 of pain related evoked potentials 2. Latencies P1, N1 and P2 of pain-related evoked potentials 3. Intensity estimates of phasic (C02-) pain 4. Intensity estimates of tonic pain
In the first 20 minutes, 40 phasic CO2-stimuli were applied (20 stimuli at a concentration of 70% and 20 at a concentration of 60%, interstimulus interval 30 s). In response to these stimuli, pain-related potentials and subjective intensity estimates were recorded.
as §1
The EEG was recorded from 5 positions of the international 10/20 system (Cz, C3, C4, Fz and Pz; see FIG. 40) referenced to linked earlobes (A1+A2). Possible eye blink artifacts were monitored from an additional site (Fp2/A1+A2). Stimulus linked EEG segments of 2040 ms duration were sampled with a frequency of 250 Hz (band pass 0.2-30 Hz, pre-stimulus period 512 ms). The recorded analog EEG segments were then converted to digital and filed electronically. The average value for each recording position was separately calculated, discarding all eye blink contaminated records. By this procedure pain-related evoked potentials were obtained in response to the painful CO2 stimuli. Base to peak amplitudes P1, N1 and P2, the peak to peak amplitudes P1 N1 and N1 P2 and the latencies of P1, […] and P2 were measured. Wherever the time of measurement was used in the data analysis, the mid-time of a session was taken. FIG. 40 presents the components of the pain-related evoked potentials.

[8] = ITT non-missing, naloxone 10 mg/day + oxycodone 40-80 mg/day
[9] = ITT non-missing, naloxone 20 mg/day + oxycodone 40-80 mg/day
[10] = ITT non-missing, naloxone 40 mg/day + oxycodone 40-80 mg/day
[11] = ITT/LOCF, naloxone 10 mg/day + oxycodone 40-80 mg/day
[12] = ITT/LOCF, naloxone 20 mg/day + oxycodone 40-80 mg/day
[13] = ITT/LOCF, naloxone 40 mg/day + oxycodone 40-80 mg/day
[14] = PP, naloxone 20 mg/day + oxycodone 40-80 mg/day
[15] = PP, naloxone 40 mg/day + oxycodone 40-80 mg/day
[16] = naloxone 10 mg/day + oxycodone 40-80 mg/day
[17] = naloxone 20 mg/day + oxycodone 40-80 mg/day
[18] = naloxone 40 mg/day + oxycodone 40-80 mg/day

## C=CCN1CC[C@]23c4c5ccc(O)c4O[C@H]2C(=O)CC[C@@]3(O)[C@H]1C5 [Naloxone, naloxone]
[1]
  Oral bioavailability: < 3%
[2]; [8]
  Mean Bowel Function Score, Mean (SD) V3: 53.5 (22.2)
  Mean Bowel Function Score, Mean (SD) V5: 40.3 (23.1)
[2]; [9]
  Mean Bowel Function Score, Mean (SD) V3: 51.3 (21.6)
  Mean Bowel Function Score, Mean (SD) V5: 31.3 (25.8)
[2]; [10]
  Mean Bowel Function Score, Mean (SD) V3: 48.2 (20.6)
  Mean Bowel Function Score, Mean (SD) V5: 26.1 (25.1)
[2]; ITT non-missing, naloxone 10 mg/day + oxycodone 40-80 mg/day, listed as naloxone
  Mean Bowel Function Score, Mean (SD) V5: 40.3 (±23.09) and 40.3 (±23.1)
[2]; ITT non-missing, naloxone 20 mg/day + oxycodone 40-80 mg/day, listed as naloxone
  Mean Bowel Function Score, Mean (SD) V5: 31.3 (±25.82) and 31.3 (±25.8)
[2]; ITT non-missing, naloxone 40 mg/day + oxycodone 40-80 mg/day, listed as naloxone
  Mean Bowel Function Score, Mean (SD) V5: 26.1 (±25.08) and 26.1 (±25.1)
[2]; [11]
  Mean Bowel Function Score, Mean (SD) V3: 53.6 (22.8)
  Mean Bowel Function Score, Mean (SD) V5: 40.1 (24.7)
[2]; [12]
  Mean Bowel Function Score, Mean (SD) V3: 49.9 (23.1)
  Mean Bowel Function Score, Mean (SD) V5: 33.2 (28.4)
[2]; [13]
  Mean Bowel Function Score, Mean (SD) V3: 47.7 (20.5)
  Mean Bowel Function Score, Mean (SD) V5: 26.5 (25.7)
[2]; ITT, Visit 4, naloxone 10 mg/day + oxycodone 40-80 mg/day
  Mean (±SD) bowel function: 42.1 (±25.53)
[2]; ITT, Visit 4, naloxone 20 mg/day + oxycodone 40-80 mg/day
  Mean (±SD) bowel function: 34.2 (±30.04)
[2]; ITT, Visit 4, naloxone 40 mg/day + oxycodone 40-80 mg/day
  Mean (±SD) bowel function: 27.9 (±22.68)
[2]; ITT, end of follow-up (oxycodone only), former 40 mg naloxone group
  Mean (±SD) bowel function: 42.4 (±23.19)
[2]; PP, end of maintenance, naloxone 10 mg/day + oxycodone 40-80 mg/day
  Mean (±SD) bowel function: 39.4 (±23.44)
[2]; PP, end of maintenance, naloxone 20 mg/day + oxycodone 40-80 mg/day
  Mean (±SD) bowel function: 29.8 (±29.29)
[2]; PP, end of maintenance, naloxone 40 mg/day + oxycodone 40-80 mg/day
  Mean (±SD) bowel function: 29.6 (±28.34)
[3]; [8]
  Mean Pain, Mean (SD) V3: 35.9 (16.3)
  Mean Pain, Mean (SD) V5: 37.2 (17.3)
[3]; [9]
  Mean Pain, Mean (SD) V3: 39.8 (18.4)
  Mean Pain, Mean (SD) V5: 37.5 (20.5)
[3]; [10]
  Mean Pain, Mean (SD) V5: 38.7 (17.0)
[3]; [14]
  Mean Pain, Mean (SD) V3: 40.1 (20.0)
  Mean Pain, Mean (SD) V5: 36.1 (19.5)
[3]; [15]
  Mean Pain, Mean (SD) V3: 39.0 (16.1)
  Mean Pain, Mean (SD) V5: 38.7 (16.6)
[3]; PP, naloxone 10 mg/day + oxycodone 40-80 mg/day
  Mean Pain, Mean (SD) V5: 38.8 (18.4)
[4]
  Intensity estimates of phasic pain stimuli, naloxone effect: seemed to antagonize partly the oxycodone effect
[5]; [16]
  Mean number of days with laxative intake during the last 7 days prior to the end of maintenance: 2.6±3.34
  Percentage of days (mean±SD) with laxation during the entire maintenance phase: 36.5±33.50
[5]; [17]
  Mean number of days with laxative intake during the last 7 days prior to the end of maintenance: 2.0±3.14
  Percentage of days (mean±SD) with laxation during the entire maintenance phase: 31.3±41.38
[5]; [18]
  Mean number of days with laxative intake during the last 7 days prior to the end of maintenance: 1.6±2.93
  Percentage of days (mean±SD) with laxation during the entire maintenance phase: 27.8±41.25
[6]; oxycodone-pump rats, 60-min observation
  Checked signs of withdrawal: the rats underwent robust withdrawal
[6]; oxycodone-pump rats, first 15-min
  Graded withdrawal signs (escape attempts, wet-dog shakes): robust withdrawal that was short-lasting that ended within the first 15-min
[6]; oxycodone-pump rats, later intervals up to 45- to 60-min
  Graded withdrawal signs (escape attempts, wet-dog shakes): no longer significantly present throughout the remainder of the experiment
[6]; vehicle-pump rats
  Signs of withdrawal: no signs of withdrawal were observed
[7]; 20 mg oxycodone in combination with 5 mg naloxone
  Magnitude of reduction of amplitude P1N1 at C4 compared to baseline: 24.5%
[7]; 20 mg oxycodone in combination with 15 mg naloxone
  Magnitude of reduction of amplitude P1N1 at C4 compared to baseline: 23.7%
[7]; based on 20 mg oxycodone PR
  Dose of naloxone PR that does not significantly influence the analgesic effect (EEG) of oxycodone: below 15 mg
